Reference: US20240246905A1 (University of Leicester, priority 2021, published 2024)

Legend:
[1] = test system: MRSA 252; experiment: MIC, broth micro-dilution; type: cell-based, Staphylococcus aureus; conditions: Staphylococcus aureus, read-out: MIC
Outline: (§1)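 Broth micro-dilution followed CLSI 2017: 1:2 antibiotic dilutions in TSB were inoculated at 5×10^5 CFU/mL. OD was recorded every 12 min over 18 h at 37 °C, and MIC was derived from sigmoidal dose-response fits.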

[2] = test system: MSSA 476; experiment: MIC, broth micro-dilution; type: cell-based, Staphylococcus aureus; conditions: Staphylococcus aureus, MSSA, read-out: MIC
Outline: as §1

[3] = test system: MRSA 252; experiment: Disc diffusion (Kirby-Bauer), zone of inhibition; type: cell-based, Staphylococcus aureus; conditions: Staphylococcus aureus, 500 μg/mL, '/' = no zone, read-out: Zone of inhibition
Outline: (§2)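 Kirby-Bauer per CLSI 2017: 1 in 200 dilutions of overnight cultures (LB for Gram-negatives, TSB for Gram-positives) spread on Mueller-Hinton agar. Discs loaded with 50 μL antibiotic were added and plates incubated 24 h at 37 °C. Zone of inhibition recorded.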

[4] = test system: MSSA 476; experiment: Disc diffusion (Kirby-Bauer), zone of inhibition; type: cell-based, Staphylococcus aureus; conditions: Staphylococcus aureus, 500 μg/mL, '/' = no zone, read-out: Zone of inhibition
Outline: as §2

[5] = test system: Escherichia coli DH5α; experiment: Disc diffusion (Kirby-Bauer), zone of inhibition; type: cell-based; conditions: Escherichia coli DH5α; 500 μg/mL; '/' = no zone; read-out: Zone of inhibition
Outline: as §2

[6] = test system: Staphylococcus aureus 15981; experiment: Disc diffusion (Kirby-Bauer), zone of inhibition; type: cell-based; conditions: Staphylococcus aureus 15981; 500 μg/mL; '/' = no zone; read-out: Zone of inhibition
Outline: as §2

[7] = test system: various Staphylococcus aureus strains; experiment: Disc diffusion, Staphylococcus aureus strain study; type: cell-based; conditions: Staphylococcus aureus, 500 μg/mL
From the text: At this point in the study it was decided to perform a disc diffusion assay study on 50 S. aureus strains. […] Moreover, by employing a range of mutant strains of S. aureus with specific gene-deletions, it was believed that if particular strains were resistant to the lead compounds, it could provide insights on the likely protein target of the lead antibiotics. However, all six of the compounds utilized in this study were able to inhibit growth of all 50 strains of S. aureus assayed at the chosen concentration of 500 μg/mL concentration (Table 5).
E. coli DH5α, P. aeruginosa PA01 and the 53 S. aureus strains were recovered from frozen (−80° C.) glycerol (15% v/v) stocks on Lysogeny agar (LA)—Gram negative and trypticase soy agar (TSA)—plates at 37° C. for 24 hours. Single colonies were placed in either 3 mL Lysogeny broth (LB)—Gram negative or trypticase soy broth (TSB)—Gram positive and incubated at 37° C., 250 rpm for 18 hours.
The antibiotic activity was determined using a Kirby-Bauer method according to Clinical Standard Laboratory Institute (CSLI) Guidelines (2017). Briefly, 180 μL of a 1 in 200 dilution (in LB or TSB) of overnight cultures of selected Gram negative and Gram positive bacteria were applied to an agar plate containing the solid growth medium, Mueller-Hinton agar (MHA). Sterile discs, inoculated with 50 μL of antibiotic, were first added to the agar plate before the plates were incubated for 24 hours at 37° C. Following incubation, the zone of inhibition (if it existed) was recorded.

[8] = test system: HEK293 cells; experiment: Cytotoxicity assay, resazurin (CO-ADD)
Outline: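 HEK293 cells in DMEM with 10% FBS were exposed to compounds at a single concentration of 32 μg/mL for 20 h at 37° C, 5% CO2. Viability read by resazurin fluorescence (2.3 μg/mL final, 3 h; F560/590). CC50 from sigmoidal dose-response fitting.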

[9] = test system: red blood cells; experiment: Hemolysis assay (CO-ADD); type: cell-based; conditions: 32 μg/mL highest concentration tested
From the text: A problem often encountered by emerging drugs is hemolysis, also known as drug-induced immune hemolytic anemia.

[C-]#[N+]/C=C/c1ccc(NC(C)=O)cc1/C=C/c1ccccc1 [Compound 41, N-(4-((E)-2-Isocyanovinyl)-3-((E)-styryl)phenyl)acetamide]
28 mm: zone of inhibition at 500 µg/mL ([7]; strain ASARM 61) | zone of inhibition at 500 µg/mL ([7]; strain EOE 35) | zone of inhibition at 500 µg/mL ([7]; strain EOE 52) | zone of inhibition at 500 µg/mL ([7]; strain S364_5_12) | zone of inhibition at 500 µg/mL ([7]; strain Sa_TPS 3026) | zone of inhibition at 500 µg/mL ([7]; strain Sa_TPS 3092) | zone of inhibition at 500 µg/mL ([7]; strain Sa_TPS 3097) | zone of inhibition at 500 µg/mL ([7]; strain Sa_TPS 3103) | zone of inhibition at 500 µg/mL ([7]; strain Sa_TPS 3104) | zone of inhibition at 500 µg/mL ([7]; strain Sa_TPS 3133) | zone of inhibition at 500 µg/mL ([7]; strain USFL 008) | zone of inhibition at 500 µg/mL ([7]; strain USFL 020)
no toxicity: toxicity towards the HEK293 cell line (in words) ([8]; set concentration of 32 μg/mL)
27 mm: zone of inhibition at 500 µg/mL ([7]; strain ASARM 73) | zone of inhibition at 500 µg/mL ([7]; strain ASARM 76) | zone of inhibition at 500 µg/mL ([7]; strain S295_1_3) | zone of inhibition at 500 µg/mL ([7]; strain S364_5_11) | zone of inhibition at 500 µg/mL ([7]; strain USFL 009)
20 mm: zone of inhibition at 500 µg/mL [5]
31 mm: zone of inhibition at 500 µg/mL ([7]; strain S197_1_10)
25 mm: zone of inhibition at 500 µg/mL ([7]; strain ASARM 77) | zone of inhibition at 500 µg/mL ([7]; strain S295_1_2)
34 mm: zone of inhibition at 500 µg/mL [4] | zone of inhibition at 500 µg/mL [6]
36 mm: zone of inhibition at 500 µg/mL ([7]; strain Sa_TPS 3106)
32 mm: zone of inhibition at 500 µg/mL [3] | zone of inhibition at 500 µg/mL ([7]; strain ASARM 70) | zone of inhibition at 500 µg/mL ([7]; strain ASARM 71) | zone of inhibition at 500 µg/mL ([7]; strain S197_1_1) | zone of inhibition at 500 µg/mL ([7]; strain S197_1_9) | zone of inhibition at 500 µg/mL ([7]; strain Sa_TPS 3118) | zone of inhibition at 500 µg/mL ([7]; strain USFL 012) | zone of inhibition at 500 µg/mL ([7]; strain USFL 018)
6 µg/mL: MIC [1]
8 µg/mL: MIC [2]
22 mm: zone of inhibition at 500 µg/mL ([7]; strain S139_7_7)
26 mm: zone of inhibition at 500 µg/mL ([7]; strain ASARM 75) | zone of inhibition at 500 µg/mL ([7]; strain EOE 3) | zone of inhibition at 500 µg/mL ([7]; strain EOE 23) | zone of inhibition at 500 µg/mL ([7]; strain EOE 41) | zone of inhibition at 500 µg/mL ([7]; strain EOE 54) | zone of inhibition at 500 µg/mL ([7]; strain Sa_TPS 3072) | zone of inhibition at 500 µg/mL ([7]; strain Sa_TPS 3134)
30 mm: zone of inhibition at 500 µg/mL ([7]; strain ASARM 72) | zone of inhibition at 500 µg/mL ([7]; strain ASARM 80) | zone of inhibition at 500 µg/mL ([7]; strain EOE 30) | zone of inhibition at 500 µg/mL ([7]; strain EOE 42) | zone of inhibition at 500 µg/mL ([7]; strain EOE 45) | zone of inhibition at 500 µg/mL ([7]; strain EOE 57) | zone of inhibition at 500 µg/mL ([7]; strain S197_1_8) | zone of inhibition at 500 µg/mL ([7]; strain USFL 035) | zone of inhibition at 500 µg/mL ([7]; strain USFL 054) | zone of inhibition at 500 µg/mL ([7]; strain not given)
>32 µg/mL: Hemolytic activity (HC10) [9]
29 mm: zone of inhibition at 500 µg/mL ([7]; strain ASARM 79) | zone of inhibition at 500 µg/mL ([7]; strain S295_1_1) | zone of inhibition at 500 µg/mL ([7]; strain USFL 016) | zone of inhibition at 500 µg/mL ([7]; strain USFL 021) | zone of inhibition at 500 µg/mL ([7]; strain USFL 028)
>32000 ng/mL: Concentration toxic to HEK 293 cells ([8]; HEK 293)
